From ChEMBL document CHEMBL1142323, “Inhibition of carbonic anhydrases with glycosyltriazole benzene sulfonamides” (J Med Chem, 2008)

Assays:
Carbonic anhydrase 9 = Carbonic anhydrase 9 (Homo sapiens, UniProt Q16790)
Carbonic anhydrase 2 = Carbonic anhydrase 2 (Homo sapiens, UniProt P00918)
Carbonic anhydrase 1 = Carbonic anhydrase 1 (Homo sapiens, UniProt P00915)
Sequence of Carbonic anhydrase 1 (P00915 whole entry): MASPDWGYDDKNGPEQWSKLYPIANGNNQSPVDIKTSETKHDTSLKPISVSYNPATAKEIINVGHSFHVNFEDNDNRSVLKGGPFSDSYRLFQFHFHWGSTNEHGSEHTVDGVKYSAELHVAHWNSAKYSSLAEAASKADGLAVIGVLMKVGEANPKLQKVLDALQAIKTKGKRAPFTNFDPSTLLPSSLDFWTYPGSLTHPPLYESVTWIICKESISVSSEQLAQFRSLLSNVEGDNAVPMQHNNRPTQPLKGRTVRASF

Ki (Carbonic anhydrase 9)	SMILES	Ki (Carbonic anhydrase 2)	Ki (Carbonic anhydrase 1)
134 nM	CC(=O)O[C@H]1[C@H](OC(C)=O)C(n2cc(-c3ccc(S(N)(=O)=O)cc3)nn2)OC[C@H]1OC(C)=O (single isomer, unassigned)		
89 nM	NS(=O)(=O)c1ccc(-c2cn([C@@H]3O[C@H](CO)[C@@H](O)[C@H](O)[C@H]3O)nn2)cc1	380 nM	9.4 nM
121 nM	NS(=O)(=O)c1ccc(-c2cn([C@@H]3O[C@H](CO)[C@@H](O)[C@H]3O)nn2)cc1		
130 nM	NS(=O)(=O)c1ccc(-c2cn([C@@H]3O[C@H](CO)[C@@H](O[C@H]4O[C@H](CO)[C@@H](O)[C@H](O)[C@H]4O)[C@H](O)[C@H]3O)nn2)cc1		
120 nM	NS(=O)(=O)c1ccc(-c2cn([C@@H]3O[C@H](CO)[C@H](O)[C@H](O)[C@H]3O)nn2)cc1	8.8 nM	9.3 nM
	CC(=O)OC[C@H]1O[C@@H](n2cc(-c3ccc(S(N)(=O)=O)cc3)nn2)[C@H](OC(C)=O)[C@@H](OC(C)=O)[C@@H]1OC(C)=O	9.1 nM	4400 nM
9.9 nM	COC(=O)[C@H]1O[C@@H](n2cc(-c3ccc(S(N)(=O)=O)cc3)nn2)[C@H](OC(C)=O)[C@@H](OC(C)=O)[C@@H]1OC(C)=O		
101 nM	CC(=O)N[C@@H]1[C@@H](OC(C)=O)[C@H](OC(C)=O)[C@@H](COC(C)=O)O[C@H]1n1cc(-c2ccc(S(N)(=O)=O)cc2)nn1		
5.4 nM	NS(=O)(=O)c1ccc(-c2cn(C3O[C@H](CO)[C@@H](O)[C@H](O)[C@@H]3O)nn2)cc1 (single isomer, unassigned)	7.6 nM	2.8 nM

SMILES	Ki (Carbonic anhydrase 9)	Ki (Carbonic anhydrase 2)	Ki (Carbonic anhydrase 1)
COC(=O)[C@H]1O[C@@H](n2cc(-c3ccc(S(N)(=O)=O)cc3)nn2)[C@H](O)[C@@H](O)[C@@H]1O	8.4 nM		
CC(=O)OC[C@H]1OC(n2cc(-c3ccc(S(N)(=O)=O)cc3)nn2)[C@@H](OC(C)=O)[C@@H](OC(C)=O)[C@@H]1OC(C)=O (single isomer, unassigned)	5 nM	2.1 nM	1.6 nM
CC(=O)OC[C@H]1O[C@@H](n2cc(-c3ccc(S(N)(=O)=O)cc3)nn2)[C@H](OC(C)=O)[C@@H](OC(C)=O)[C@@H]1O[C@H]1O[C@H](COC(C)=O)[C@@H](OC(C)=O)[C@H](OC(C)=O)[C@H]1OC(C)=O	120 nM		
CC(=O)OC[C@H]1O[C@@H](n2cc(-c3ccc(S(N)(=O)=O)cc3)nn2)[C@H](OC(C)=O)[C@@H](OC(C)=O)[C@H]1OC(C)=O	110 nM	8.7 nM	4300 nM
